Patent US20250353827A1, “INDOLINE DERIVATIVES AS SEROTONERGIC AGENTS USEFUL FOR THE TREATMENT OF DISORDERS RELATED THERETO” (MINDSET PHARMA INC., priority 2022, published 2025)
Where “and” joins values, the source holds several entries; their conditions need not be identical. Equal entries are not always repeated.

Key:
[1] = target: T1, human 5-HT2A (h5-HT2A) receptor (Homo sapiens, UniProt P28223); experiment: FLIPR assay, human 5-HT2A receptor under agonist mode; type: cell-based; conditions: 5-HT2A (FLIPR)
T1 construct: expressed in transfected cells; cultured under G418 and hygromycin B selection
T1 sequence (P28223 whole entry): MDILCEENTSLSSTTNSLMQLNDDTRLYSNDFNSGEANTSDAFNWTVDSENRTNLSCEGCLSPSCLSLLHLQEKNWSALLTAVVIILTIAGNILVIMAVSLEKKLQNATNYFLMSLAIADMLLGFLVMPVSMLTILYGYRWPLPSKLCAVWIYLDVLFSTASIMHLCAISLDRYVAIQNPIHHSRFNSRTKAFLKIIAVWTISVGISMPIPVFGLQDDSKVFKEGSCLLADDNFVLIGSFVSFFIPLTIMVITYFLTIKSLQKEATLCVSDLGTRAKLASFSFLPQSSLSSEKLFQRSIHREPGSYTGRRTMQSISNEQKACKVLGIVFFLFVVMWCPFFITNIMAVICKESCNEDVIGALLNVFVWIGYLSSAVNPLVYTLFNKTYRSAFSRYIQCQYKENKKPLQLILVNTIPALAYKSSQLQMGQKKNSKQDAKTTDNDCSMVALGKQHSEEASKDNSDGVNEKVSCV
Procedure: I. Assessment of the Effect of Exemplary Compounds of Formula I Targeting on Human 5-HT2A (h5-HT2A) Receptor Under Agonist Mode
• 1. Cells were cultured in cell culture medium (DMEM containing 10% FBS, 1×penicillin-streptomycin 300 μg/ml G418 and 100 μg/ml hygromycin B) at 37° C., 5% (v/v) CO2. • 2. One day before the assays, the cells were detached using TrypLE™ Express and cells were counted using cell counter. Only cells with >85% viability were used for the assay. • 3. 20000 cells/well were seeded in 30 μl/well culture medium to a 384-well cell plate and cells were incubated overnight at 37° C., 5% (v/v) CO2. • 4. On the assay day, 2×dye solution was prepared following the manual of the FLIPR® Calcium 6 Assay Kit: i. The dye was diluted with assay buffer (20 mM HEPES in 1× HBSS, PH7.4); ii. Probenecid was added to the final concentration of 5 mM; iii. Vortex vigorously for 1-2 minutes. • 5. Medium was removed from cell plate by flicking the cell plate on towel papers. • 6. 10 μl of assay buffer and 10 μl of 2×dye solution was added to each well of the cell plate. • 7. The cell plate was placed on plate shaker, the plate was agitated at 600 rpm for 2 minutes. The plate was incubated at 37° C. for 2 hours followed by additional 15-minute incubation at 25° C. • 8. 3×compound in assay buffer was prepared: a. Reference compounds were diluted to required concentration with DMSO. The compounds were added to a 384-well compound plate; b. Serial dilutions were performed; c. 10 mM test compounds were added to the compound plate, and 3-fold serial dilutions were performed. d. Transfer 60 nl/well of compounds from source plate to a 384-well compound plate (Corning, 3657) by using an Echo; e. Add 20 μl/well assay buffer to the compound plate; f. Mix the plate on plate shaker for 2 mins; • 9. The cell plate, compound plate and tips were put into FLIPR, 10 μl of 3× compound was transferred to the cell plate per well with FLIPR.
• i. The normalized fluorescence reading (RFU) was calculated as shown below, where Fmax and Fmin stand for maximum and minimum of calcium signal during defined time window: RFU=Fmax−Fmin. • ii. Calculate the percentage activation using following equation:
[formula] • Iii. Calculate EC50 by fitting % activation against log of compound concentrations with Hill equation using XLfit.
Exemplary compounds of Formula I were evaluated functionally using FLIPR assay for their effect on h5-HT2A receptor under agonist mode.

[2] = Liver microsomes stability, human
Procedure: (§1) The objective of this study was to estimate in vitro metabolic stability of representative compounds of the application in pooled human and male mouse liver microsomes. The concentrations of parent compounds in reaction systems were evaluated by LC-MS/MS for estimating the stability in pooled human and male mouse liver microsomes. The in vitro intrinsic clearances of test compounds were determined as well.
(§2) A master solution in the “Incubation Plate” containing phosphate buffer, ultra-pure H2O, MgCl2 solution and liver microsomes was made according to Table 3. The mixture was pre-warmed at 37° C. water bath for 5 minutes.
(§3) 40 μL of 10 mM NADPH solution was added to each well. The final concentration of NADPH was 1 mM. The negative control samples were prepared by replacing NADPH with 40 μL of ultra-pure H2O. Samples were prepared in duplicate. Negative controls were prepared in singlet.
(§4) The reaction was started with the addition of 4 μL of 200 μM test compounds or control compounds to each master solution to get the final concentration of 2 μM. This study was performed in duplicate.
(§5) Aliquots of 50 μL were taken from the reaction solution at 0, 15, 30, 45 and 60 minutes. The reaction solutions were stopped by the addition of 4 volumes of cold methanol with IS (100 nM alprazolam, 200 nM imipramine, 200 nM labetalol and 2 μM ketoprofen). Samples were centrifuged at 3,220 g for 40 minutes. Aliquot of 90 μL of the supernatant was mixed with 90 μL of ultra-pure H2O and then was used for LC-MS/MS analysis.
(§6) LC/MS analysis was performed for all samples from this study using a Shimadzu liquid chromatograph separation system equipped with degasser DGU-20A5R; solvent delivery unit LC-30AD; system controller SIL-30AC; column oven CTO-30A; CTC Analytics HTC PAL System. Mass spectrometric analysis was performed using a Triple Quad™ 5500 instrument.
(§7) All calculations were carried out using Microsoft Excel. Peak areas were determined from extracted ion chromatograms. The slope value, k, was determined by linear regression of the natural logarithm of the remaining percentage of the parent drug vs. incubation time curve.
(§8) The in vitro half-life (in vitro t1/2) was determined from the slope value:
(§9) Conversion of the in vitro t1/2 (min) into the in vitro intrinsic clearance (in vitro CLint, in μL/min/mg proteins) was done using the following equation (mean of duplicate determinations): […]

[3] = Liver microsomes stability, mouse
Procedure: as §1, §2, §3, §4, §5, §6, §7, §8, §9

Male, C57BL/6J mice = experiment: Mouse head twitch; type: in vivo; conditions: for head twitches (mean): counted over 1 hr, male C57BL/6J mice
Procedure: The effect of different doses of representative compounds of Formula I were evaluated on head-twitch response (HTR) and other behavioural responses as behavior-based models of psychedelic activity.
Male, C57BL/6J mice (body weight range 20-30 g) were dosed with the appropriate dose of test article, and following a 1-minute pre-treatment time, placed in individual observation chambers. Animals were visually assessed for the incidence head twitches continuously over a 1 hr period. Head twitches were defined as a rapid jerk of the head which was not elicited by an external tactile stimulus (Come and Pickering, Psychopharmacologia, 1967, 11(1): 65-78). Each head twitch was individually counted by a trained observer, and the data was expressed as the mean±SEM of 6-10 mice per group. Mice were used in a single experiment only.
The head twitch response of exemplary compound II-1 (1-30 mg/kg SC) was compared to 5-MeO DMT and psilocybin (FIG. 1, Table 6).

[4] = Liver microsomes stability, rat; conditions: rat

COc1ccc2c(c1)C(CCN(C)C)CN2 (centres unmarked) [II-1, 2-(5-Methoxyindolin-3-yl)-N,N-dimethylethan-1-amine]
RFU@10 μM ([1]; 10 μM, RFU=Fmax−Fmin): 1813 and 1180
EC50 ([1]; read-out: EC50): 0.202 µM and 0.274 µM
Predicted hepatic CL ([2]; human liver microsomes): 14.13 mL/min/kg
Remaining Percentage ([2]; human, With NADPH, 0 min): 100.00%
Remaining Percentage ([2]; human, With NADPH, 30 min): 65.37%
Remaining Percentage ([2]; human, With NADPH, 60 min): 34.47%
Remaining Percentage ([2]; human, Without NADPH, 0 min): 100.00%
Remaining Percentage ([2]; human, Without NADPH, 30 min): 89.91%
Remaining Percentage ([2]; human, Without NADPH, 60 min): 83.49%
CLint scaled at 2 μM ([2]; human, pooled liver microsomes): 44.5 mL/min/kg
half-life at 2 μM ([2]; human, pooled liver microsomes): 39 min
microsomal CLint at 2 μM ([2]; human, pooled liver microsomes): 35.5 µL/min/mg
CLint scaled at 2 μM ([3]; male, mouse, microsomes): 368 mL/min/kg
half-life at 2 μM ([3]; male, mouse, microsomes): 16.5 min
microsomal CLint at 2 μM ([3]; male, mouse, microsomes): 84.2 µL/min/mg
Predicted hepatic CL ([3]; mouse liver microsomes): 72.33 mL/min/kg
Remaining Percentage ([3]; mouse, With NADPH, 0 min): 100.00%
Remaining Percentage ([3]; mouse, With NADPH, 30 min): 31.98%
Remaining Percentage ([3]; mouse, With NADPH, 60 min): 8.00%
Remaining Percentage ([3]; mouse, Without NADPH, 0 min): 100.00%
Remaining Percentage ([3]; mouse, Without NADPH, 30 min): 117.83%
Remaining Percentage ([3]; mouse, Without NADPH, 60 min): 113.85%
head twitches (mean) (Male, C57BL/6J mice; 0.3 mg/kg SC): 3.2
head twitches (mean) (Male, C57BL/6J mice; 1 mg/kg SC): 3.8
head twitches (mean) (Male, C57BL/6J mice; 3 mg/kg SC): 3.6
head twitches (mean) (Male, C57BL/6J mice; 10 mg/kg SC): 2.3
mice with some 5-HT syndrome associated behaviours (Male, C57BL/6J mice; 30 mg/kg SC, 2/5 mice): 40%
head twitches (mean) (Male, C57BL/6J mice; 30 mg/kg SC): 4.2
head twitch response (in words) (Male, C57BL/6J mice; SC, dose range as in the sentence): only a modest head twitch response
other behavioural signs (locomotion, core body temperature, 5-HT syndrome) in words (Male, C57BL/6J mice; SC, psilocybin 3 and 10 mg/kg, 5-MeO DMT 3-30 mg/kg, II-1 0.3-30 mg/kg): No overt signs of hypolocomotion or 5-HT syndrome
peak head twitch response (Male, C57BL/6J mice; at 30 mg/kg SC, mean±SEM): 4.2±0.7 twitches
Remaining Percentage ([4]; With NADPH, 0 min): 100.00%
Remaining Percentage ([4]; With NADPH, 30 min): 20.42%
Remaining Percentage ([4]; With NADPH, 60 min): 5.99%
Remaining Percentage ([4]; Without NADPH, 0 min): 100.00%
Remaining Percentage ([4]; Without NADPH, 30 min): 86.92%
Remaining Percentage ([4]; Without NADPH, 60 min): 87.15%
CLint scaled at 2 μM ([4]; liver microsomes): 168 mL/min/kg
Predicted hepatic CL ([4]; liver microsomes): 41.56 mL/min/kg
half-life at 2 μM ([4]; liver microsomes): 14.8 min
microsomal CLint at 2 μM ([4]; liver microsomes): 93.8 µL/min/mg
